This is an account of results in patent US12215135B2, “PDL2 compounds” (IO BIOTECH APS, priority 2016, dated 2025).

Assay [1] relates to TAP-deficient T2 cells pulsed with peptide. The experiment in a line: 51Cr release assay, PD-L101-specific T-cell culture against peptide-pulsed T2 cells. It is filed as cell-based, human. The settings on record: different effector-to-target ratios. As to the method:
(§1) Cytotoxicity Assay PD-L1-specific and PD-L2-specific T-cell-mediated cytotoxicity was measured with conventional 51chromium-release assays, as previously described (4). Target cells were TAP deficient T2 cells, pulsed with HIV-1 pol476-484 ([…], SEQ ID NO: 26), PD-L101 (PD-L1(15-23)), or PD-L205 (PD-L2(16-25)). siRNA-Mediated PD-L2 Silencing of DCs

Assay [2] has as its system TAP deficient T2 cells pulsed with peptide. Nature of the assay: 51chromium-release cytotoxicity assay, PD-L2-specific T-cell cultures against peptide-pulsed T2 cells. The assay is classed as cell-based, human. The settings on record: cultures A and B. As for the experimental part:
(§2) PBMCs from a patient with melanoma were stimulated with irradiated (30 Gy) autologous DCs, which had been pulsed with PD-L205 (PD-L2(16-25)) peptide (PBL:DC ratio 10:1) and IL-7 (40 U/ml) were added (PeproTech, London, UK). The next day, IL-12 (20 U/ml) was added (PeproTech, London, UK). At weekly intervals, we performed three identical stimulations, with irradiated autologous DCs loaded with PDL205 (PD-L2(16-25)), and IL-12 (20 U/ml) added the next day. Then, at weekly intervals, we stimulated the culture three more times with irradiated autologous PBLs loaded with PDL205 (PD-L2(16-25)) (culture:PBL ratio 1:1), but the next day, we added IL-2 (120 U/ml; Proleukin, Novartis).
(§3) The culture was enriched for specific T cells, either by staining with an anti-CD137-PE antibody (BD-Biosciences) or by employing a TNF-α-enrichment and detection kit (according to the procedure by Miltenyi Biotec). Next, we performed magnetic cell isolation with a MACs microbead column (according to the procedure by Miltenyi Biotec). The sorted cells were rapidly expanded by incubating with 0.6 μg anti-CD3 antibody (eBioscience, clone OKT3) and a high dose of IL-2 (Proleukin, Novartis).
as §1

For assay [3], the system named is PBMCs from patients with cancer and healthy donors. The experiment in a line: IFN-γ ELISPOT assay on PBMCs. It is filed as cell-based, human. The settings on record: for IFN-γ ELISPOT response, significance according to the DFR test / IFN-γ ELISPOT response, significance according to the DFR×2 rule: 5 selected PBMCs, patients with malignant melanoma; for specific T-cell responses, IFN-γ ELISPOT in vitro assay: PBMCs from HLA-A2+ patients with cancer, stimulated once in vitro with peptide; for immune responses, IFN-γ ELISPOT assay: PBMCs from healthy donors; for CD4+ T cell responses against long peptides, IFN-γ ELISPOT assay: PBMCs from 11 patients with cancer and 11 healthy donors. As for the experimental part: (§4) We collected blood samples from patients with melanoma, renal cell carcinoma, non-hodgkin lymphoma, and ovarian cancer and from healthy. Samples were collected a minimum of four weeks after the termination of any kind of anti-cancer therapy. Peripheral blood mononuclear cells (PBMCs) were isolated using Lymphoprep™ (Alere A S, cat. 1114547) separation, HLA-typed and frozen in FCS with 10% DMSO (Sigma-Aldrich, cat. D5879-100ML). Tumor Infiltrating lymphocytes (TIL) from lesions from two melanoma patients were expanded using high dose IL-2 (6000 units/ml). The protocol was approved by the Scientific Ethics Committee for The Capital Region of Denmark and conducted in accordance with the provisions of the Declaration of Helsinki. Before study entry, a written informed consent from the patients was obtained.
(§5) The IFN-γ and TNF-α ELISPOT technique was performed as described previously (3). We performed the assays according to the guidelines provided by the cancer immunotherapy immunoguiding program (CIP; cimt.eu/cimt/files/dl/cip guidelines.pdf). Unless stated otherwise, PBMCs were stimulated once in vitro with peptide prior to analysis to extend the sensitivity of the assay. To measure T-cell reactivity, nitrocellulose-bottomed 96-well plates (MultiScreen MSIPN4W; Millipore) were coated overnight at room temperature or two days at 4° C. with the relevant antibodies. The wells were washed and blocked with X-vivo medium for 2 h. The PBMCs were added at different cell concentrations in triplicate wells, with PD-L2 peptide or with control peptide, and incubated overnight. The following day, the wells were washed, and the relevant biotinylated secondary antibody (Mabtech) was added, followed by the avidin-enzyme conjugate (AP-Avidin; Calbiochem/Invitrogen Life Technologies); finally, we added the enzyme substrate, NBT/BCIP (Invitrogen Life Technologies) for visualization. The spots on the developed ELISPOT plates were analyzed on a CTL ImmunoSpot S6 Ultimate-V analyzer with Immunospot software, v5.1.
An ELISPOT response was defined, based on the guidelines and recommendations provided by CIP and Moodie et al (5). The non-parametric distribution-free resampling (DFR) and more conservative DFR×2 statistical test were used for a formal comparison between antigen-stimulated wells and negative-control wells. The ELISPOT assays were performed at least in triplicate.

Assay [4] deals with PBMCs from patients with malignant melanoma. The experiment in a line: TNF-α ELISPOT assay on PBMCs. The settings on record: 5 selected PBMCs. The assay is classed as cell-based, human. As to the method:
as §4
The IFN-γ and TNF-α ELISPOT technique was performed as described previously (3). We performed the assays according to the guidelines provided by the cancer immunotherapy immunoguiding program (CIP; cimt.eu/cimt/files/dl/cip guidelines.pdf). Unless stated otherwise, PBMCs were stimulated once in vitro with peptide prior to analysis to extend the sensitivity of the assay. […] The spots on the developed ELISPOT plates were analyzed on a CTL ImmunoSpot S6 Ultimate-V analyzer with Immunospot software, v5.1. […]

For assay [5], the system named is PD-L2 T cell culture-A and -B (PD-L205-specific T cells). The experiment in a line: Intracellular cytokine staining of PD-L2-specific T-cell cultures. The assay is classed as cell-based, human. As to the method:
as §2, §3
(§6) To detect cell subpopulations that produced cytokines, we stimulated a PD-L1-specific T-cell culture (previously described (1)) and a PD-L2-specific T-cell culture with 5 μg/ml of relevant or irrelevant peptide, and incubated the cells for 5 h at 37° C. with 5% CO2. After 1 h of incubation, we added GolgiPlug (BD), diluted at 1:200. After 4 h, cells were washed twice with PBS, stained with fluorochrome-conjugated antibodies specific for surface markers (CD3-APC-H7, CD4-PerCP/FITC, CD8-Pacific Blue/PerCP, and Horizon Fixable Viability Stain 510, all from BD). Cells were washed, fixed, and permeabilized with Fixation/Permeabilization and Permeabilization Buffer (eBioscience), according to the manufacturer's instructions. Cells were subsequently stained with fluorochrome-conjugated antibodies to visualize intracellular cytokines. The following antibody-fluorochrome combinations were used: IFNγ-PE-CY7/APC (eBioscience) and TNFα-APC/BV421 (eBioscience). Relevant isotype controls were used to enable correct compensation and confirm antibody specificity. Stained cells were analyzed with a BD FACSCanto II flow cytometer. Analysis was performed with BD FACSDiva Software.

The test system is the same in assay [6]. The experiment in a line: ELISPOT assay on PD-L2-specific T-cell cultures. The assay is classed as cell-based, human. The settings on record: both PD-L2 specific cultures. As to the method:
as §5, with “v5.1. […]” for “v5.1.”

For assay [7], the system named is PD-L101-specific CD8+ T cells. The experiment in a line: Intracellular cytokine staining of PD-L101-specific T-cell culture. It is filed as cell-based, human. As for the experimental part: as §6
In assay [8] the test system is T cells. The settings on record: previously described, refs (1), (2), (6); cited from earlier work.
Assay [9] has as its system Tumor infiltrating T-lymphocytes from two melanoma patients. The experiment in a line: Intracellular cytokine staining of tumor infiltrating T-lymphocytes. The settings on record: TILs from two melanoma patients. It is filed as cell-based, human. As to the method:
as §4
To detect cell subpopulations that produced cytokines, we stimulated a PD-L1-specific T-cell culture (previously described (1)) and a PD-L2-specific T-cell culture with 5 μg/ml of relevant or irrelevant peptide, and incubated the cells for 5 h at 37° C. with 5% CO2. After 1 h of incubation, we added GolgiPlug (BD), diluted at 1:200. […] Stained cells were analyzed with a BD FACSCanto II flow cytometer. […]

Entries after “also recorded” stand apart in the source; their conditions may differ.

As for “ILKEPVHGV (HIV-1 (HLA-A2 high affinity binding epitope)) [HIV-1 pol476-484]”, in [1], the “lysis of peptide-pulsed T2 cells by PD-L101-specific T cells” value (shortened to “lysis … by PD-L101-specific T cells”) is reported as “no cytotoxicity was observed”. Besides, the “recognition and lysis of peptide-pulsed T2 cells by PD-L2 (PD-L205)-specific T-cell cultures” value (shortened to “recognition and lysis”) in assay [2] is “did not recognize; also recorded: did not kill”.

Take “QIAALFTVTV (Peptide fragment of human PDL2) [PD-L205, HLA-A2 restricted peptide fragment of human PD-L2]”: in [3], the “IFN-γ ELISPOT response, significance according to the DFR test” value is given as “statistically significant”; the “IFN-γ ELISPOT response, significance according to the DFR×2 rule” value is recorded as “statistically significant”; the “specific T-cell responses, IFN-γ ELISPOT in vitro assay” value (“specific T-cell responses” for short) was “detected immune responses”; the “immune responses, IFN-γ ELISPOT assay” value is on record as “strong immune responses”. In assay [3] (PBMCs from four donors, directly ex vivo without prior in vitro peptide stimulation, DFR rule), the “ex vivo IFN-γ ELISPOT response” value is on record as “one of these donors showed an ex vivo IFN-γ response that was statistically significant”. Besides, in [3] (in general, across donors), the “epitope dominance in eliciting immune responses” value is “dominant PD-L2 epitope; also recorded: strongest responses”. Further, the “TNF-α ELISPOT response, significance according to the DFR test” value in assay [4] is on record as “statistically significant”. In assay [5] (PD-L2 T cell culture-A), the “CD4+ T cells with TNF-α release in response to peptide” value was “about 4.5%” and the “CD8+ T cells with TNF-α release in response to peptide” value was approximately 1%. In [5] (PD-L2 T cell culture-B), the “CD4+ T cells with TNF-α release in response to peptide” value is given as “about 7%” and the “CD8+ T cells with TNF-α release in response to peptide” value was approximately 2%. For the same sequence, the “lysis … by PD-L101-specific T cells” value in assay [1] is recorded as “no cytotoxicity was observed”. Besides, the “recognition and lysis” value in [2] is listed as “could indeed recognize”. The “recognition and lysis” value in assay [2] (listed as PDL205) was “recognized and lysed”. The “IFN-γ and TNF-α T cell responses, ELISPOT” value in assay [6] was “T cell responses were observed”.

For LLNAFTVTV (PD-L101 (PDL1 peptide)), the “spontaneous T-cell responses, IFN-γ ELISPOT test” value in [3] (PBMCs from patients with cancer that responded to PD-L205) is recorded as “did not detect any immune response”. Besides, in assay [7], the “cytokine release (IFN-γ and TNF-α) from PD-L101-specific CD8+ T cells” value was “released cytokines only in response to PD-L101”. For the same sequence, the “lysis … by PD-L101-specific T cells” value in assay [1] is recorded as “only lysed T2-cells pulsed with PD-L101”. The “recognition and lysis” value in assay [2] is “did not kill”. For the same sequence, the “T cell response elicited by epitope” value in [8] is listed as “strong T cell response”.

Regarding “LLLMLSLEL (Peptide fragment of human PDL2) [PD-L201, HLA-A2 restricted peptide fragment of human PD-L2]”, in [3], the “IFN-γ ELISPOT response, significance according to the DFR test” value is “statistically significant”; the “IFN-γ ELISPOT response, significance according to the DFR×2 rule” value was “statistically significant”; the “specific T-cell responses” value was “detected immune responses”; the “immune responses, IFN-γ ELISPOT assay” value is “weaker responses”. In addition, the “TNF-α ELISPOT response, significance according to the DFR test” value in [4] is recorded as “statistically significant”.

For “FIFIATVIAL (Peptide fragment of human PDL2) [PD-L215, HLA-A2 restricted peptide fragment of human PD-L2]”, the “specific T-cell responses” value in assay [3] is on record as “detected immune responses”.

On to “SLELQLHQIAALFTVTVPKEL (Peptide fragment of human PDL2) [PD-L2long1]”, for which, in assay [3], the “CD4+ T cell responses against long peptides, IFN-γ ELISPOT assay” value is listed as “frequent but moderate responses”.

“MIFLLLMLSLELQLHQIAALFTVTV (Peptide fragment of human PDL2) [PD-L2long2]”: the “CD4+ T cell responses against long peptides, IFN-γ ELISPOT assay” value in assay [3] is given as “frequent but moderate responses”. In addition, in assay [3] (PBMCs from four non-hodgkin lymphoma patients, DFR rule), the “IFN-γ responses, in vitro ELISPOT assay” value is “All four patients showed responses that were statistically significant”. The “IFN-γ CD4+ T-cell responses, intracellular cytokine staining” value in [9] is given as “elicited IFN-γ CD4+ T-cell responses”.
